Measured values as given in patent publication US20120101148A1, “LIPID FORMULATION” (ALNYLAM PHARMACEUTICALS, INC., priority 2009, published 2012).

Assay: Stability assay of Lipid A liposomes (LC-ELSD)
Settings: for degradation of Lipid A in liposome formulation containing antioxidant: pH=5, 37° C., day 5
Experimental: The stability of lipids in formulation were performed and monitored using the following HPLC and ELSD (Evaporative Light Scattering Detector) conditions.
Column: Waters Xbridge C18 2.5 μm 2.1×150 mm reversed phase column
Model: Polymer lab ELS 2100
Evaporator temperature: 90
Nebuliser temperature: 60
Fresh Lipid A liposome samples with loaded siRNA AD1661 were prepared as described herein. These Lipid A liposome samples were incubated in 100 mM NaOAc buffer (pH=5) at 37° C., and were subject to LC-ELSD analysis every other day.
In order to examine whether degradation of Lipid A can be prevented by addition of radical scavengers such as butylated hydroxytoluene (BHT or butylhydroxytoluene), Lipid A-containing liposome formulation LNP08 with lipids molar ratio of 60/7.5/31/1.5 (lipid A/DSPC/Cholesterol/PEG-C14 lipid) loaded with siRNA AD1661 containing BHT was tested in the stability assay as described above. These samples were subject to LC-ELSD analysis at day 5.
In order to examine whether the degradation of Lipid A can be prevented by antioxidants such as vitamin E, Lipid A-containing liposome formulation LNP09 loaded with siRNA AD1661 containing various amount of vitamin E were tested in the stability assay as described above. These samples were subject to LC-ELSD analysis at day 5. Chromatographs comparing the stability of various Lipid A liposome formulations with or without vitamin E were shown in FIG. 34.

Cc1cc(C(C)(C)C)c(O)c(C(C)(C)C)c1 [BHT, butylated hydroxytoluene]
degradation of Lipid A in liposome formulation containing antioxidant: inhibited

vitamin E
degradation of Lipid A, higher amount of antioxidant (LNP09, pH=5, day 5): reverse effect
degradation of Lipid A in liposome formulation containing antioxidant: inhibited
